# System: human antibody to the nicotinic acetylcholine receptor
# Experiment: Adsorption of human anti-nicotinic acetylcholine receptor antibody from myasthenia gravis patient serum; residual antibody in supernatant by Con A method (toxin binding inhibition)
# Description: In 0.5 ml of serum from a patient of myasthenia gravis, 50 mg of the adsorbent obtained in Referential Example 3(a) (cellulose particles having the peptide immobilized thereon) and not yet subjected to any heat treatment or the adsorbent obtained in Referential Example 3(b) and subjected to a heat treatment was suspended at a temperature of 37° C. for three hours. The resultant suspension was centrifuged to separate a supernatant. The supernatant was tested for the concentration of the human antibody to the nicotinic acetylcholine receptor by the Con A method [Protein, Nucleic Acid and Enzyme, vol. […] To be specific, the specimen was brought into contact sequentially with the nicotinic acetylcholine receptor and a radioisotope-labelled α-bungartoxin. The treated specimen was passed through a column packed with Sepharose having immobilized thereon concanavalin (Con A). By measuring the radioactivity of the column, the amount of the human antibody which was contained in the specimen and which inhibited the union of the α-bungarotoxin with the nicotinic acetylcholine receptor was determined in terms of toxin binding inhibition activity (ratio of decrease of the radioactivity of the column).
structure (smiles),measurement,setting,value
"NCC(=O)O [Glycine, glycine]",Toxine binding inhibition activity,"as E1, adsorbent heat treated at 121° C. for 20 minutes",45%
same,Toxine binding inhibition activity,"supernatant of 0.5 ml myasthenia gravis serum after 50 mg adsorbent (substance immobilized on cellulose particles), 37° C., three hours, no heat treatment, lower = more antibody adsorbed",44%
